Biological target: BTK (Homo sapiens (Human), UniProt Q06187)
Assay: Btk kinase assay (HTRF)
Type: biochemical
Details: [ATP]=80 μM, BTK=3.4 nM; read-out: BTK Inhibition
In short: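 HTRF kinase read-out (665/615 nm ratio, excitation 330 nm) after EDTA quench and 1 h detection incubation. Reaction: 3.4 nM BTK, ATP 80 μM, peptide substrate 1 μM, compound, HEPES pH 7.0 buffer, 1 h; IC50 derived using uninhibited and enzyme-free controls.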

Sequence of BTK (Q06187 whole entry, species assumed): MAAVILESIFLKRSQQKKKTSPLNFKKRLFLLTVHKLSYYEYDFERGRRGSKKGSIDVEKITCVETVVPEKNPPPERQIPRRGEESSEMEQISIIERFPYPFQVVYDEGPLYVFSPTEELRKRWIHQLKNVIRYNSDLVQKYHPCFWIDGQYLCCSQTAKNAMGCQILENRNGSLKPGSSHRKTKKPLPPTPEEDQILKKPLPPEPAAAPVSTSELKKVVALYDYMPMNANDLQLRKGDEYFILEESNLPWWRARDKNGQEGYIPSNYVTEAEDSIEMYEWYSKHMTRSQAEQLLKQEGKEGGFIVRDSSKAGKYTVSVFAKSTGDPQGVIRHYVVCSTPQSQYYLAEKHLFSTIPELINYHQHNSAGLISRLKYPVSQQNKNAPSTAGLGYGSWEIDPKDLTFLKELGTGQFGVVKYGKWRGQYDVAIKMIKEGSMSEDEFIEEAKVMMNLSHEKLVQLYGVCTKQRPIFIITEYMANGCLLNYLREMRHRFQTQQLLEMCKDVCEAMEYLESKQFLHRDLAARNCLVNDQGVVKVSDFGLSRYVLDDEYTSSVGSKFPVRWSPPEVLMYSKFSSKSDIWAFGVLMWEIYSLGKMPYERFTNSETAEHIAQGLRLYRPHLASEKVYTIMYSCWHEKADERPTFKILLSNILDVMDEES

Compound	IC50 [nM]
C=CC(=O)N1CC[C@@H](n2c(=O)n(-c3ccc(OCc4ccccc4)c(F)c3)c3cnccc32)C1 [Example 237, (R)-1-(1-acryloylpyrrolidin-3-yl)-3-(4-(benzyloxy)-3-fluorophenyl)-1,3-dihydro-2H-imidazo[4,5-c]pyridin-2-one]	10 to 100
C=CC(=O)Nc1cccc(-n2c(=O)n(-c3ccc(OCc4cccc(Cl)c4F)c(F)c3)c3cnccc32)c1 [Example 238, N-(3-(3-(4-((3-chloro-2-fluorobenzyl)oxy)-3-fluorophenyl)-2-oxo-2,3-dihydro-1H-imidazo[4,5-c]pyridin-1-yl)phenyl)acrylamide]	100 to 1000
C=CC(=O)Nc1cccc(-n2c(=O)n(-c3ccc(OCc4ccccc4)cc3)c3cnccc32)c1 [Example 239]	100 to 1000
C=CC(=O)Nc1cccc(-n2c(=O)n(-c3ccc(OCc4cccc(C(F)(F)F)c4)cc3)c3cnccc32)c1 [Example 240, N-(3-(2-oxo-3-(4-((3-(trifluoromethyl)benzyl)oxy)phenyl)-2,3-dihydro-1H-imidazo[4,5-c]pyridin-1-yl)phenyl)acrylamide]	10 to 100
C=CC(=O)Nc1cccc(-n2c(=O)n(-c3ccc(OCc4ccc(F)c(F)c4)cc3)c3cnccc32)c1 [Example 241, N-(3-(3-(4-((3,4-difluorobenzyl)oxy)phenyl)-2-oxo-2,3-dihydro-1H-imidazo[4,5-c]pyridin-1-yl)phenyl)acrylamide]	100 to 1000
C=CC(=O)Nc1cccc(-n2c(=O)n(-c3ccc(OCc4ccc(C(F)(F)F)cc4)cc3)c3cnccc32)c1 [Example 242, N-(3-(2-oxo-3-(4-((4-(trifluoromethyl)benzyl)oxy)phenyl)-2,3-dihydro-1H-imidazo[4,5-c]pyridin-1-yl)phenyl)acrylamide]	100 to 1000
C=CC(=O)Nc1cccc(-n2c(=O)n(-c3ccc(OCc4cccc(C(F)(F)F)c4)c(Cl)c3)c3cnccc32)c1 [Example 243, N-(3-(3-(3-chloro-4-((3-(trifluoromethyl)benzyl)oxy)phenyl)-2-oxo-2,3-dihydro-1H-imidazo[4,5-c]pyridin-1-yl)phenyl)acrylamide]	100 to 1000
C=CC(=O)N1CC[C@@H](n2c(=O)n(-c3ccc(OCc4ccc(Cl)cc4F)cc3)c3cnccc32)C1 [Example 244, (R)-1-(1-acryloylpyrrolidin-3-yl)-3-(4-((4-chloro-2-fluorobenzyl)oxy)phenyl)-1H-imidazo[4,5-c]pyridin-2(3H)-one]	100 to 1000
C=CC(=O)Nc1cccc(-n2c(=O)n(-c3ccc(OCc4ccc(Cl)cc4F)cc3)c3cnccc32)c1 [Example 245, N-(3-(3-(4-((4-chloro-2-fluorobenzyl)oxy)phenyl)-2-oxo-2,3-dihydro-1H-imidazo[4,5-c]pyridin-1-yl)phenyl)acrylamide]	100 to 1000
C=CC(=O)N1CC[C@@H](n2c(=O)n(-c3ccc(OCc4ccccc4)cc3)c3cnccc32)C1 [Example 246]	100 to 1000
C=CC(=O)Nc1cccc(-n2c(=O)n(-c3ccc(OCc4ccc(F)cc4)cc3)c3cnccc32)c1 [Example 247, N-(3-(3-(4-((4-fluorobenzyl)oxy)phenyl)-2-oxo-2,3-dihydro-1H-imidazo[4,5-c]pyridin-1-yl)phenyl)acrylamide]	10 to 100
C=CC(=O)Nc1cccc(-n2c(=O)n(-c3ccc(OCc4ccc(F)cc4F)cc3)c3cnccc32)c1 [Example 248, N-(3-(3-(4-((2,4-difluorobenzyl)oxy)phenyl)-2-oxo-2,3-dihydro-1H-imidazo[4,5-c]pyridin-1-yl)phenyl)acrylamide]	100 to 1000
C=CC(=O)Nc1cccc(-n2c(=O)n(-c3ccc(C(=O)NCc4ccc(F)cc4)cc3)c3cnccc32)c1 [Example 249, 4-(1-(3-acrylamidophenyl)-2-oxo-1H-imidazo[4,5-c]pyridin-3(2H)-yl)-N-(4-fluorobenzyl)benzamide]	10 to 100
C=CC(=O)N1CC[C@@H](n2c(=O)n(-c3ccc(C(=O)N4CCOCC4)cc3)c3cnccc32)C1 [Example 250, (R)-1-(1-acryloylpyrrolidin-3-yl)-3-(4-(morpholine-4-carbonyl)phenyl)-1H-imidazo[4,5-c]pyridin-2(3H)-one]	1000 to 10000
C=CC(=O)Nc1cccc(-n2c(=O)n(-c3ccc(C(=O)Nc4cccc(C(F)(F)F)c4)cc3)c3cnccc32)c1 [Example 251, 4-(1-(3-acrylamidophenyl)-2-oxo-1H-imidazo[4,5-c]pyridin-3(2H)-yl)-N-(3-(trifluoromethyl)phenyl)benzamide]	1000 to 10000
C=CC(=O)Nc1cccc(-n2c(=O)n(-c3ccc(C(=O)NCc4cccc(OC)c4)cc3)c3cnccc32)c1 [Example 252, 4-(1-(3-acrylamidophenyl)-2-oxo-1H-imidazo[4,5-c]pyridin-3(2H)-yl)-N-(3-methoxybenzyl)benzamide]	100 to 1000
C=CC(=O)Nc1cccc(-n2c(=O)n(-c3ccc(C(=O)N4CCOCC4)cc3)c3cnccc32)c1 [Example 253, N-(3-(3-(4-(morpholine-4-carbonyl)phenyl)-2-oxo-2,3-dihydro-1H-imidazo[4,5-c]pyridin-1-yl)phenyl)acrylamide]	1000 to 10000

Compound	IC50 [nM]
C=CC(=O)Nc1cccc(-n2c(=O)n(-c3ccc(C(=O)Nc4ccccc4)cc3)c3cnccc32)c1 [Example 254, 4-(1-(3-acrylamidophenyl)-2-oxo-1H-imidazo[4,5-c]pyridin-3(2H)-yl)-N-phenylbenzamide]	1000 to 10000
C=CC(=O)Nc1cccc(-n2c(=O)n(-c3ccc(C(=O)Nc4cccc(C)c4)cc3)c3cnccc32)c1 [Example 255, 4-(1-(3-acrylamidophenyl)-2-oxo-1H-imidazo[4,5-c]pyridin-3(2H)-yl)-N-(m-tolyl)benzamide]	1000 to 10000
C=CC(=O)N1CC[C@@H](n2c(=O)n(-c3ccc(C(=O)NCc4cccc(OC)c4)cc3)c3cnccc32)C1 [Example 256, (R)-4-(1-(1-acryloylpyrrolidin-3-yl)-2-oxo-1H-imidazo[4,5-c]pyridin-3(2H)-yl)-N-(3-methoxybenzyl)benzamide]	1000 to 10000
C=CC(=O)Nc1cccc(-n2c(=O)n(-c3ccc(NC(=O)c4ccccc4OC)cc3)c3cnccc32)c1 [Example 258, N-(4-(1-(3-acrylamidophenyl)-2-oxo-1H-imidazo[4,5-c]pyridin-3(2H)-yl)phenyl)-2-methoxybenzamide]	10 to 100
C=CC(=O)Nc1cccc(-n2c(=O)n(-c3ccc(NC(=O)c4cccc(Cl)c4)cc3)c3cnccc32)c1 [Example 259, N-(4-(1-(3-acrylamidophenyl)-2-oxo-1H-imidazo[4,5-c]pyridin-3(2H)-yl)phenyl)-3-chlorobenzamide]	100 to 1000
C=CC(=O)Nc1cccc(-n2c(=O)n(-c3cccc(NC(=O)c4ccc(C(C)(C)C)cc4)c3)c3cnccc32)c1 [Example 260, N-(3-(1-(3-acrylamidophenyl)-2-oxo-1H-imidazo[4,5-c]pyridin-3(2H)-yl)phenyl)-4-(tert-butyl)benzamide]	10 to 100
C=CC(=O)Nc1cccc(-n2c(=O)n(-c3ccc(NC(=O)c4ccccc4)cc3)c3cnccc32)c1 [Example 261, N-(4-(1-(3-acrylamidophenyl)-2-oxo-1H-imidazo[4,5-c]pyridin-3(2H)-yl)phenyl)benzamide]	100 to 1000
C=CC(=O)Nc1cccc(-n2c(=O)n(-c3ccc(NC(=O)c4ccccc4C(F)(F)F)cc3)c3cnccc32)c1 [Example 262, N-(4-(1-(3-acrylamidophenyl)-2-oxo-1,2-dihydro-3H-imidazo[4,5-c]pyridin-3-yl)phenyl)-2-(trifluoromethyl)benzamide]	100 to 1000
C=CC(=O)Nc1cccc(-n2c(=O)n(-c3ccc(NC(=O)c4ccc(C(F)(F)F)cc4)cc3)c3cnccc32)c1 [Example 263, N-(4-(1-(3-acrylamidophenyl)-2-oxo-1,2-dihydro-3H-imidazo[4,5-c]pyridin-3-yl)phenyl)-4-(trifluoromethyl)benzamide]	100 to 1000
C=CC(=O)Nc1cccc(-n2c(=O)n(-c3ccc(NC(=O)c4ccc(OC)cc4)cc3)c3cnccc32)c1 [Example 264, N-(4-(1-(3-acrylamidophenyl)-2-oxo-1H-imidazo[4,5-c]pyridin-3(2H)-yl)phenyl)-4-methoxybenzamidee]	100 to 1000
C=CC(=O)Nc1cccc(-n2c(=O)n(-c3ccc(NC(=O)c4cccc(F)c4)cc3)c3cnccc32)c1 [Example 265, N-(4-(1-(3-acrylamidophenyl)-2-oxo-1H-imidazo[4,5-c]pyridin-3(2H)-yl)phenyl)-3-fluorobenzamide]	100 to 1000
C=CC(=O)Nc1cccc(-n2c(=O)n(-c3ccc(NC(=O)c4cccc(OC)c4)cc3)c3cnccc32)c1 [Example 266, N-(4-(1-(3-acrylamidophenyl)-2-oxo-1H-imidazo[4,5-c]pyridin-3(2H)-yl)phenyl)-3-methoxybenzamide]	100 to 1000
C=CC(=O)Nc1cccc(-n2c(=O)n(-c3ccc(NC(=O)c4cccc(C)c4)cc3)c3cnccc32)c1 [Example 267, N-(4-(1-(3-acrylamidophenyl)-2-oxo-1H-imidazo[4,5-c]pyridin-3(2H)-yl)phenyl)-3-methylbenzamide]	≥ 10000
C=CC(=O)N1CC[C@@H](n2c(=O)n(-c3ccc(NC(=O)c4ccc(OC)c(C(F)(F)F)c4)cc3)c3cnccc32)C1 [Example 268, (R)-N-(4-(1-(1-acryloylpyrrolidin-3-yl)-2-oxo-1H-imidazo[4,5-c]pyridin-3(2H)-yl)phenyl)-4-methoxy-3-(trifluoromethyl)benzamide]	100 to 1000
C=CC(=O)N1CC[C@H](n2c(=O)n(-c3ccc(NC(=O)c4ccc(C)c(C(F)(F)F)c4)cc3)c3cnccc32)C1 [Example 269, (S)-N-(4-(1-(1-acryloylpyrrolidin-3-yl)-2-oxo-1H-imidazo[4,5-c]pyridin-3(2H)-yl)phenyl)-4-methyl-3-(trifluoromethyl)benzamide]	100 to 1000
C=CC(=O)Nc1cccc(-n2c(=O)n(-c3ccc(-c4cccc(C)c4)cc3)c3cnccc32)c1 [Example 270, N-(3-(3-(3′-methyl-[1,1′-biphenyl]-4-yl)-2-oxo-2,3-dihydro-1H-imidazo[4,5-c]pyridin-1-yl)phenyl)acrylamide]	≥ 10000

— US10358446B2, “Bruton's tyrosine kinase inhibitors” (Zibo Biopolar Changsheng Pharmaceutical Co. Ltd., priority 2015, dated 2019)
